From US12440471B2, “Compositions and methods for the treatment of bronchopulmonary dysplasia (BPD) and BPD-associated pulmonary hypertension” (AyuVis Research, Inc., priority 2021, dated 2025)

Experiments:
[1] = test system: hyperoxia-exposed BPD mouse model; test: Hyperoxia-exposed BPD mouse model: dose response and lung morphometry; type: in vivo
Procedure: Simultaneously, the AVR-48 nanosuspension formulation IN (0.11 mg/kg) was tested as well as in solution form, IP and IV (10 mg/kg) (through the facial vein), and confirmed that all routes of administration gave similar outcomes. […] From the PK study, as described above, the bioavailability of the drug in the plasma and lungs were similar when delivered as solution formulation via either IN or IP routes. As the goal of this study is to develop AVR-48 as a commercially viable and applicable therapeutic candidate for BPD, the IP route was selected as the preferred mode of drug delivery in neonatal murine pups, with the rationale that it would be easier to deliver the drug systemically to preterm babies IV, rather than the IN route. The results and outcome of all the routes of administration have been presented in a cumulative manner, as the endpoint was similar for all routes of administration. […] FIG. 1 is a dose response study of AVR-48 at different doses of […], given IP. ****p<0.0001. N=5-7 mice per group. 10 mg/kg (IP) was selected as the most efficacious dose. IP: intraperitoneal; Hyp: hyperoxia; BPD: Bronchopulmonary dysplasia.
Formulation of AVR-48 for efficacy and toxicokinetic studies. For the mouse dose response efficacy studies, AVR-48 was reconstituted in 0.9% sterile normal saline to give a final dose concentration of […] as a colorless solution, and injected IP (30 μl) on P2 and P4. The PLGA encapsulated AVR-48 or the GFP-tagged analog was resuspended in deionized sterile water to make a nanosuspension with final dose concentration of 0.025, 0.05 and 0.11 mg/kg/drop. The surfactant Curosurf® (Cheisi Parma, Italy), available commercially, was delivered IN at a volume of 3 μl per nostril, on P2 and P4. For the toxicokinetic study of AVR-48 in rat pups, a formulation of 10% DMSO, 20% tetraglycol, 20% PEG 400, and 50% sterile water was made fresh before administration (Shah, Das et al. 2021).
For the hyperoxia experiment, newborn pups were exposed to 100% hyperoxia (P0), along with their mothers, in cages in an airtight Plexiglas chamber (OxyCycler; Biospherix, Redfield, NY, USA) as described previously by the present inventors (Syed, Das et al., 2017, Leary, Das et al. 2019, Das, Acharya et al. 2020, relevant portions incorporated herein) for 4 consecutive days (till P4) and removed to RA on P5 to be recovered till P14, so as to emulate the human BPD condition. All pups were sacrificed on P14 for further experimental analyses. The pups without any hyperoxia exposure served as the corresponding RA (normoxia) controls.
Histology, immunohistochemistry and immunofluorescence. Both the RA control and BPD mice were anesthetized (using an overdose of a cocktail of xylazine-ketamine) and lung and heart tissues were harvested after perfusion and fixed overnight in 4% paraformaldehyde. Fixed tissues were then washed in fresh PBS, dehydrated using 70% ethanol, cleared, and embedded in paraffin to be sectioned and stained with hematoxylin and eosin (H&E) for lung morphometry or immunohistochemistry/immunofluorescence as previously described (Leary, Das et al. 2019, Das, Achaiya et al. 2020, Das, Curstedt et al. 2020). Immunofluorescence staining was done for Ki67 (Abcam, 1:10) and Von Wilebrand Factor (vWF-DAKO, 1:100) on lung paraffin sections following the protocol as described earlier (Leary, Das et al. 2019) while TUNEL staining was done following the manufacturer's instructions (Roche).
Morphometry and quantification. To study chord length, septal thickness and radial alveolar count in the lungs, RV, LV and IVS thickness, 5 μm-thick left-lobe lung and heart paraffin-embedded sections were stained with H&E. Multiple randomly chosen areas (at least 10 areas) from each section were photographed using 100× total magnification. […]

[2] = PK study in mouse pups by IP and IN routes (plasma, lung tissue); type: in vivo
Description: Pharmacokinetic (PK) Profile of AVR-48 (compound 8). The PK studies of AVR-48 were developed and designed in-house, by high performance liquid chromatography (HPLC), in both mouse and rat pups by IV, IP and IN dosing, to check the bioavailability of the drug formulated as solution, suspension or nanoparticle encapsulation in plasma, broncho-alveolar lavage fluid (BALF) and lung tissues.
The first study was done in the plasma of mouse pups by IP and IN routes to determine the dose range for efficacy. […] For IN dosing, a Tmax of 1 h was found even with a dose of 0.22 mg/kg and rapid clearance was observed by 2 h.

[3] = 2 doses IP 10 mg/kg on P2 and P4, comparable to RA controls
[4] = IP dosing, doses 0.5, 2.0, 5.0 and 10 mg/kg
[5] = C57BL/6J, mouse, plasma, 10 mg/kg IP

With `CC(=O)N[C@@H]1C(Oc2ccc([N+](=O)[O-])cc2)OC(CO)C(O)C1O` (stereo partly shown) [AVR-48] the “prevention of the BPD phenotypes” value ([1]; 10 mg/kg IP) was > 80%, the “chord length (alveolar sacs)” value [1, 3] was “regained their normal shape and size” and the “septal thickness (alveolar sacs)” value [1, 3] was “regained their normal shape and size”. For the same compound, the “radial alveolar counts (RAC)” value ([1]; 2 doses IP 10 mg/kg on P2 and P4, vs BPD) was “improved”, the chord length ([1]; AVR-48 administered adjuvantly with CS (Curosurf IN)) was “normal” and the “interaction between the drug and CS” value ([1]; AVR-48 administered adjuvantly with CS in mouse pups) was “no adverse effect”. The minimum efficacious dose [1, 4] was 5.0 mg/kg, the “optimum / most efficacious dose” value [1, 4] was 10 mg/kg and the minimum efficacious dose ([1]; juvenile mouse) was 5 mg/kg/day. For the same compound, the “inflammatory cytokines in neonatal mouse pups with BPD” value ([1]; mouse, in vivo) was “decrease inflammatory cytokines”, the Tmax ([2]; C57BL/6J, mouse, intraperitoneal, lung tissue, 10 mg/kg) was 5 min and the Cmax ([2]; C57BL/6J, mouse, intraperitoneal, plasma, single IV or IP injection of 10 mg/kg) was 5.78 ± 0.91 µM. It also gave a Tmax ([2]; C57BL/6J, mouse, plasma, other: intranasal (IN), IN dosing, 0.22 mg/kg) of 60 min, a Tmax ([2]; C57BL/6J, mouse, plasma, 0.22 mg/kg IP) of 5 min and a Tmax [2, 5] of 5 min. The half-life [2, 5] was 21.6 min, the “time by which rapid clearance was observed” value ([2]; IN dosing, 0.22 mg/kg) was ≤ 2 h and the clearance from circulation ([2]; following IP injection) was “cleared from circulation rapidly”. For the same compound, the “bioavailability in plasma and lungs, IN vs IP” value ([2]; solution formulation) was “similar”.
